# Data reported in patent US9493461B2, “Tetracyclic heterocycle compounds and methods of use thereof for the treatment of hepatitis C” (priority 2013, dated 2016).
# Read-outs that look alike come from different tables or passages of the source.
# Columns and labels:
# HCV replicon genotype 1a = assay: HCV replicon assay, genotype 1a (cell ELISA for replicon-encoded NS3/4A); format: cell-based, hepatitis C virus (HCV)
# Description: Measurement of inhibition by compounds was performed using the HCV replicon system. Several different replicons encoding different HCV genotypes or mutations were used. In addition, potency measurements were made using different formats of the replicon assay, including different ways of measurements and different plating formats. See Jan M. Vrolijk et al., A replicons-based bioassay for the measurement of interferons in patients with chronic hepatitis C, 110 J. V[…] 201 (2003); Steven S. Carroll et al., Inhibition of Hepatitis C Virus RNA Replication by 2′-Modified Nucleoside Analogs, 278(14) J. BIOLOGICAL CHEMISTRY 11979 (2003). However, the underlying principles are common to all of these determinations, and are outlined below.
# (§1) Stable neomycin phosphotransferase encoding replicons-harboring cell lines were used, so all cell lines were maintained under G418 selection prior to the assay. Potency was determined using a cell ELISA assay with an antibody to the replicons encoded NS3/4a protease. See Caterina Trozzi et al., In Vitro Selection and Characterization of Hepatitis C Virus Serine Protease Variants Resistant to an Active-Site Peptide Inhibitor, 77(6) J. Virol. 3669 (2003). To initiate an assay, replicon cells were plated in the presence of a dilution series of test compound in the absence of G418. Typically, the assays were performed in a 96-well plate formate for manual operation, or a 384-well plate format for automated assay. Replicon cells and compound were incubated for 96 hours. At the end of the assay, cells were washed free of media and compound, and the cells were then lysed. RNA was quantified indirectly through detection of replicon-encoded NS3/4A protein levels, through an ELISA-based assay with an antibody specific for NS3/4A. IC50 determinations were calculated as a percentage of a DMSO control by fitting the data to a four-parameter fit function and the data obtained is provided in the table below.
# (§2) Data for selected compounds of the present invention was obtained for genotypes 1a and 1b using this method and is provided in the table below: […]
# HCV replicon genotype 1b = assay: HCV replicon assay, genotype 1b (cell ELISA for replicon-encoded NS3/4A); format: cell-based, hepatitis C virus (HCV)
# Description: The HCV NS5B inhibitory activity of the present compounds may be tested using assays known in the art. The HCV NS5B polymerase inhibitors described herein have activities in a genotype 1b replicon assay as described in the Examples. The assay is performed by incubating a replicon harboring cell-line in the presence of inhibitor for a set period of time and measuring the effect of the inhibitor on HCV replicon replication either directly by quantifying replicon RNA level, or indirectly by measuring enzymatic activity of a co-encoded reporter enzyme such as luciferase or β-lactamase. By performing a series of such measurements at different inhibitor concentrations, the effective inhibitory concentration of the inhibitor (EC50 or EC90) is determined See Jan M. Vrolijk et al., A replicons-based bioassay for the measurement of interferons in patients with chronic hepatitis C, 110 J. VIROLOGICAL METHODS 201 (2003). Such assays may also be run in an automated format for high through-put screening. See Paul Zuck et al., A cell-based β-lactamase reporter gene assay for the identification of inhibitors of hepatitis C virus replication, 334 ANALYTICAL BIOCHEMISTRY 344 (2004).
# Measurement of inhibition by compounds was performed using the HCV replicon system. Several different replicons encoding different HCV genotypes or mutations were used. In addition, potency measurements were made using different formats of the replicon assay, including different ways of measurements and different plating formats. See Jan M. Vrolijk et al., A replicons-based bioassay for the measurement of interferons in patients with chronic hepatitis C, 110 J. VIROLOGICAL METHODS 201 (2003); Steven S. Carroll et al., Inhibition of Hepatitis C Virus RNA Replication by 2′-Modified Nucleoside Analogs, 278(14) J. BIOLOGICAL CHEMISTRY 11979 (2003). However, the underlying principles are common to all of these determinations, and are outlined below.
# as §1, §2
# [1] = Hepatitis C virus, 96 h, read-out: 1a IC50 (nM), genotype 1a replicon cells, 96 hours incubation, NS3/4A ELISA readout, % of DMSO control
# [2] = Hepatitis C virus, 96 h, read-out: 1b IC50 (nM), genotype 1b replicon cells, 96 hours incubation, NS3/4A ELISA readout, % of DMSO control
SMILES,IC50 (HCV replicon genotype 1a; [1]),IC50 (HCV replicon genotype 1b; [2]),"IC50 (HCV replicon genotype 1a; read-out: 1a IC50, genotype 1a replicon cells, 96 hours incubation, NS3/4A ELISA readout, % of DMSO control)","IC50 (HCV replicon genotype 1b; read-out: 1b IC50, genotype 1b replicon cells, 96 hours incubation, NS3/4A ELISA readout, % of DMSO control)"
"CNC(=O)c1c(-c2ccc(F)cc2)oc2nc(N(C)S(C)(=O)=O)c(-c3ccc4nc(CN5CC(F)C5)n5c6cccc(F)c6cc5c4n3)cc12 [Example 38, 5-(11-fluoro-6-((3-fluoroazetidin-1-yl)methyl)pyrido[3′,2′:4,5]pyrimido[1,6-a]indol-2-yl)-2-(4-fluorophenyl)-N-methyl-6-(N-methylmethylsulfonamido)furo[2,3-b]pyridine-3-carboxamide]",6.38 nM,14.7 nM,,
"CNC(=O)c1c(-c2ccc(F)cc2)oc2cc(N(C)S(C)(=O)=O)c(-c3ccc4ncn5c6ccccc6cc5c4c3)cc12 [Example 41, 2-(4-fluorophenyl)-5-(indolo[1,2-c]quinazolin-2-yl)-N-methyl-6-(N-methylmethylsulfonamido)benzofuran-3-carboxamide]",2.09 nM,2.57 nM,,
"CNC(=O)c1c(-c2ccc(F)cc2)oc2cc(N(C)S(C)(=O)=O)c(-c3ccc4c(c3)-c3cc5ccccc5n3CN4S(C)(=O)=O)cc12 [Example 42, 2-(4-fluorophenyl)-N-methyl-6-(N-methylmethylsulfonamido)-5-(5-(methylsulfonyl)-5,6-dihydroindolo[1,2-c]quinazolin-2-yl)benzofuran-3-carboxamide]",17.2 nM,13.1 nM,,
"CNC(=O)c1c(-c2ccc(F)cc2F)oc2cc(N(C)S(C)(=O)=O)c(-c3ccc4nc(CN5CC[C@@H](F)C5)n5c6cccc(F)c6cc5c4n3)cc12 [Example 44, (R)-2-(2,4-difluorophenyl)-5-(11-fluoro-6-((3-fluoropyrrolidin-1-yl)methyl)pyrido[3′,2′:4,5]pyrimido[1,6-a]indol-2-yl)-N-methyl-6-(N-methylmethylsulfonamido)benzofuran-3-carboxamide]",3.22 nM,3.45 nM,,
CNC(=O)c1c(-c2ccc(F)cc2F)oc2cc(N(C)S(C)(=O)=O)c(-c3ccc4nc(CN5CC[C@H](F)C5)n5c6cccc(F)c6cc5c4n3)cc12 [Example 45],4.43 nM,4.29 nM,,
CNC(=O)c1c(-c2ccc(F)cc2F)oc2cc(N(C)S(C)(=O)=O)c(-c3ccc4nc(CN5CCC(F)(F)C5)n5c6cccc(F)c6cc5c4n3)cc12 [Example 46],7.76 nM,11.3 nM,,
CNC(=O)c1c(-c2ccc(F)cc2F)oc2cc(N(C)S(C)(=O)=O)c(-c3ccc4nc(CN5CCC(F)(F)CC5)n5c6cccc(F)c6cc5c4n3)cc12 [Example 47],9.67 nM,11.2 nM,,
CNC(=O)c1c(-c2ccc(F)cc2F)oc2cc(N(C)S(C)(=O)=O)c(-c3ccc4nc(CN5CC(F)(F)C5)n5c6cccc(F)c6cc5c4n3)cc12 [Example 48],2.82 nM,3.04 nM,,
"CCOP(=O)(Cc1nc2ccc(-c3cc4c(C(=O)NC)c(-c5ccc(F)cc5)oc4cc3N(C)S(C)(=O)=O)nc2c2cc3c(F)cccc3n12)OCC [Example 49, diethyl ((11-fluoro-2-(2-(4-fluorophenyl)-3-(methylcarbamoyl)-6-(N-methylmethylsulfonamido)benzofuran-5-yl)pyrido[3′,2′:4,5]pyrimido[1,6-a]indol-6-yl)methyl)phosphonate]",2.78 nM,4.88 nM,,
"CNC(=O)c1c(C(=O)N2CC(F)C2)oc2cc(N(C)S(C)(=O)=O)c(-c3ccc4ncn5c6cccc(F)c6cc5c4n3)cc12 [Example 50, 2-(3-fluoroazetidine-1-carbonyl)-5-(11-fluoropyrido[3′,2′:4,5]pyrimido[1,6-a]indol-2-yl)-N-methyl-6-(N-methylmethylsulfonamido)benzofuran-3-carboxamide]",18.1 nM,19.8 nM,,
CNC(=O)c1c(C(=O)N2CC(F)(F)C2)oc2cc(N(C)S(C)(=O)=O)c(-c3ccc4ncn5c6cccc(F)c6cc5c4n3)cc12 [Example 51],39.1 nM,32 nM,,
CNC(=O)c1c(C(=O)N2CCC2(C)C)oc2cc(N(C)S(C)(=O)=O)c(-c3ccc4ncn5c6cccc(F)c6cc5c4n3)cc12 [Example 52],260 nM,120 nM,,
"CCc1ncc(-c2oc3cc(N(C)S(C)(=O)=O)c(-c4ccc5ncn6c7cccc(F)c7cc6c5n4)cc3c2C(=O)NC)s1 [Example 53, 2-(2-ethylthiazol-5-yl)-5-(11-fluoropyrido[3′,2′:4,5]pyrimido[1,6-a]indol-2-yl)-N-methyl-6-(N-methylmethylsulfonamido)benzofuran-3-carboxamide]",7.79 nM,6.37 nM,,
"CNC(=O)c1c(-c2ccc(F)cc2)oc2cc(N(C)S(C)(=O)=O)c(-c3ccc4nc(CCN5CC(F)C5)n5c6cccc(F)c6cc5c4n3)cc12 [Example 54, 5-(11-fluoro-6-(2-(3-fluoroazetidin-1-yl)ethyl)pyrido[3′,2′:4,5]pyrimido[1,6-a]indol-2-yl)-2-(4-fluorophenyl)-N-methyl-6-(N-methylmethylsulfonamido)benzofuran-3-carboxamide]",2.14 nM,4.86 nM,,
"CNC(=O)c1c(-c2ccc(F)cc2)oc2cc(N(C)S(C)(=O)=O)c(-c3ccc4ncn5c6cccc(F)c6cc5c4n3)cc12 [Example 55, 2-(4-fluorophenyl)-5-(11-fluoropyrido[3′,2′:4,5]pyrimido[1,6-a]indol-2-yl)-N-methyl-6-(N-methylmethylsulfonamido)benzofuran-3-carboxamide]",,,1.55 nM,2.01 nM
"CNC(=O)c1c(-c2ccc(F)cc2)oc2cc(N(C)S(C)(=O)=O)c(-c3ccc4c(n3)-c3cc5c(F)cccc5n3CN4)cc12 [Example 56, 5-(11-fluoro-5,6-dihydropyrido[3′,2′:4,5]pyrimido[1,6-a]indol-2-yl)-2-(4-fluorophenyl)-N-methyl-6-(N-methylmethylsulfonamido)benzofuran-3-carboxamide]",5.26 nM,5.32 nM,,
CNC(=O)c1c(-c2ccc(F)cc2)oc2cc(N(C)S(C)(=O)=O)c(-c3cnc4c(c3)-c3cc5c(F)cccc5n3CN4)cc12 [Example 57],2.66 nM,3.11 nM,,
CNC(=O)c1c(-c2ccc(F)cc2F)oc2cc(N(C)S(C)(=O)=O)c(-c3ccc4c(n3)-c3cc5c(F)cccc5n3CN4)cc12 [Example 58],1.68 nM,2.76 nM,,
"CNC(=O)c1c(-c2ccc(F)cc2)oc2cc(N(C)S(C)(=O)=O)c(-c3cnc4ncn5c6cccc(F)c6cc5c4c3)cc12 [Example 59, 2-(4-fluorophenyl)-5-(11-fluoropyrido[2′,3′:4,5]pyrimido[1,6-a]indol-2-yl)-N-methyl-6-(N-methylmethylsulfonamido)benzofuran-3-carboxamide]",2 nM,2.16 nM,,
"CNC(=O)c1c(-c2ccc(F)cc2)oc2cc(N(C)S(C)(=O)=O)c(-c3ccc4nc(C)n5c6cccc(F)c6cc5c4n3)cc12 [Example 60, 5-(11-fluoro-6-methylpyrido[3′,2′:4,5]pyrimido[1,6-a]indol-2-yl)-2-(4-fluorophenyl)-N-methyl-6-(N-methylmethylsulfonamido)benzofuran-3-carboxamide]",2.78 nM,2.77 nM,,
